Test results as given in publication PMC7346113, “Screening of Natural Stilbene Oligomers from Vitis vinifera for Anticancer Activity on Human Hepatocellular Carcinoma Cells” (Antioxidants, 2020).

Assays:
Type in all cases: cell-based, human
[1] = test system: HepG2; test: Cell cycle analysis by flow cytometry (propidium iodide), HepG2; conditions: HepG2, 10 µM, mean ± SE
Experimental: Exponentially growing cells were seeded in 6-wells plates (200,000 cells HepG2 and 180,000 cells Hep3B) 24 h before R2-viniferin treatment. On the day of treatment, the culture medium was replaced with culture medium containing R2-viniferin or vehicle solution (control).
After a treatment, cells were detached by trypsinization and fixed overnight at 4 °C in 70% ice-cold ethanol diluted in phosphate buffer saline (PBS). The ethanol was then discarded and the cells were washed with ice-cold PBS and finally stained with 25 μg/mL of propidium iodide (Sigma-Aldrich, St Louis, MO, USA) in the presence of 200 μg/mL ribonuclease A (Roche Biochemicals, Indianapolis, IN, USA) for 30 min at room temperature in the dark. Flow cytometry analysis (Beckman Coulter Gallios) was carried out from a total number of 10,000 events acquired in the General Research Services SGIker of the UPV/EHU. Analysis of the data was performed using Summit 4.3 software (Dako, Glostrup, Hovedstaden, Denmark).

[2] = test system: HH4; test: Cell viability, crystal violet assay, HH4 non-transformed hepatocytes; conditions: Homo sapiens, Hepatocyte, mean ± standard error
Excerpt: (§1) The human hepatoma cell line HepG2 was obtained from the American Tissue Culture Collection (ATCC, Manassas, VA, USA). The human hepatoma cell line Hep3B was obtained from the European Collection of Authenticated Cell Cultures (ECACC, Porton Down, Salisbury, Wiltshire, UK). HH4 non-transformed human hepatocyte cell line (kindly provided by Dr. I. Fabregat, Molecular Oncology, Bellvitge Biomedical Research Institute, Spain) was established as described.
(§2) HepG2 and Hep3B cell lines were maintained in Eagle’s Minimum Essential Medium and HH4 cell line was grown in Ham´s F12 Nutrient Mixture (Sigma-Aldrich, St Louis, MO, USA). Both culture media were supplemented with 10% heat inactivated fetal bovine serum, 2 mM L-glutamine and antibiotics (0.1 mg/mL streptomycin and 100 U/mL penicillin) (Sigma-Aldrich, St Louis, MO, USA). Cell cultures were grown in an incubator at 37 °C with 5% CO2 atmosphere. After reaching approximately 80% of confluence, cells were detached in a solution of 0.1% trypsin and 0.04% EDTA and plated as required for further experiments.
(§3) Cell lines were seeded into 96-well plates at 5 × 10^3 (HepG2) and 3 × 10^3 (Hep3B and HH4) cells/well 24 h before treatment. Increasing concentrations of the monomer trans-resveratrol, the dimers ampelopsin A and trans-ε-viniferin and the tetramers isohopeaphenol, hopeaphenol, R2-viniferin and R-viniferin were then added and cells were incubated for 24, 48, and 72 h. Stilbenes were dissolved in dimethyl sulfoxide (DMSO), Sigma-Aldrich, St Louis, MO, USA) at a final concentration of 0.01%. The same amount of DMSO was added to control cells. After treatment, the cell viability was determined using the crystal violet assay. The absorbance was recorded at 590 nm in a Synergy HT microplate reader (BioTek, Winooski, VT, USA). Cell viability was calculated as the percentage of viable cells treated with stilbene versus untreated control cells using the following equation: Cell viability (%) = [OD (Treatment) − OD (Blank)]/[OD (Control) − OD (Blank)] × 100. The cytotoxic effect of stilbenes was determined by calculating IC50 values using non-linear regression analysis (GraphPad Prism 6, San Diego, CA, USA).
(§4) The statistical package SPSS 19.0 (SPSS Inc. Chicago, IL, USA) was used for data analysis. The results were expressed as mean ± standard error (SE) from at least three experiments. Statistical significance for the differences of the means was estimated by parametric Student’s t-test. Differences between means were considered statistically significant for p < 0.05. IC50 values were derived from fitting the data to a sigmoidal dose-response curve with a three-parameter logistic model using Graph Pad Prism 6.

[3] = test system: Hep3B; test: Cell viability, crystal violet assay, Hep3B; conditions: mean ± standard error
Excerpt: as §1, §2, §3, §4

[4] = test system: HepG2; test: Cell viability, crystal violet assay, HepG2; conditions: mean ± standard error
Excerpt: as §1, §2, §3, §4

[5] = test system: intracellular ROS in HepG2; test: Intracellular ROS, H2DCF-DA assay, flow cytometry
Experimental: Intracellular levels of reactive oxygen species (ROS) were measured using the cell-permeant 2’,7’ dichlorodihydrofluorescein diacetate (H2DCF-DA) probe (Molecular Probes, Eugene, OR, USA), which permeates living cells and is deacetylated and oxidized upon ROS exposure inside the cell, forming the fluorescent 2’,7’-dichlorofluorescein (DCF).
HepG2 cells were cultured in a 6-well cell culture plate at a density of 2 × 10^5 cells per well 24 h before starting the treatment with R2-viniferin. The medium was renewed and cells were incubated with R2-viniferin as described above. After treatment, cells were washed and incubated with 20 μM H2DCF-DA or 4 μM MitoSOX™ for 30 min at 37 °C in the dark. The probe solution was then withdrawn and, after washing with PBS, the cells were trypsinized. The fluorescence intensity from living cells was measured by flow cytometry (DCF λex = 485/20 and λem = 528/20, MitoSOX λex = 485/20 and λem = 620/20) in a Beckman Coulter Gallios Flow cytometer in the General Research Services SGIker of the UPV/EHU. At least 10,000 events were detected. Data obtained from flow cytometry were analyzed using Summit 4.3 software (Dako, Hovedstaden, Denmark). Intracellular ROS and mitochondrial O2^− were expressed as the percentage of the fluorescence intensity in control cells at the same time of incubation.

Oc1ccc([C@H]2c3c(O)cc(O)cc3[C@H]3c4c(cc(O)cc4[C@@H]2c2cc(/C=C/c4cc(O)cc5c4[C@H](c4cc(O)cc(O)c4)[C@@H](c4ccc(O)cc4)O5)ccc2O)O[C@@H]3c2ccc(O)cc2)cc1 [R2-Viniferin]
Cell cycle G0/G1 (percentage of cells) ([1]; 24 h): 65.6 ± 11.7% | Cell cycle G2/M (percentage of cells) ([1]; 24 h): 22.5 ± 8.5% | Cell cycle S (percentage of cells) ([1]; 24 h): 11.9 ± 3.2% | SubG0 (percentage of total cells) ([1]; 24 h): 8.5 ± 2.7% | Cell cycle G0/G1 (percentage of cells) ([1]; 48 h): 71.7 ± 10.9% | Cell cycle G2/M (percentage of cells) ([1]; 48 h): 19.3 ± 6.5% | Cell cycle S (percentage of cells) ([1]; 48 h): 9.0 ± 4.5% | SubG0 (percentage of total cells) ([1]; 48 h): 22.4 ± 11.0% | Cell cycle G0/G1 (percentage of cells) ([1]; 72 h): 75.5 ± 7.8% | Cell cycle G2/M (percentage of cells) ([1]; 72 h): 15.0 ± 2.2% | Cell cycle S (percentage of cells) ([1]; 72 h): 9.5 ± 5.6% | SubG0 (percentage of total cells) ([1]; 72 h): 71.0 ± 2.1% | IC50 ([2]; 24 h): > 200 µM | IC50 ([2]; 48 h): > 200 µM | IC50 ([2]; 72 h): > 200 µM | IC50 ([3]; 72 h): 47.8 ± 2.8 µM | IC50 ([3]; Homo sapiens, Hep3B, 24 h): > 200 µM | IC50 ([3]; Homo sapiens, Hep3B, 48 h): 43.9 ± 3.6 µM | IC50 ([3]; Homo sapiens, Hep3B, 72 h): 48 µM | IC50 ([4]; 72 h): 9.7 ± 0.4 µM | IC50 ([4]; Homo sapiens, HepG2, 24 h, 24 h): > 200 µM | IC50 ([4]; Homo sapiens, HepG2, 48 h, 48 h): 10.2 ± 8.2 µM | IC50 ([4]; Homo sapiens, HepG2, 72 h, 72 h): < 10 µM | Effect on intracellular ROS concentration ([5]; HepG2, 5 and 10 µM, from the first time assayed): increased the intracellular ROS concentration dose-dependently | Effect on intracellular ROS ([5]; HepG2, highest concentration used (10 µM)): ROS remained significantly elevated up to 72 h
